Like-named read-outs stand apart in the source and are kept apart here. Peptide text beside a SMILES is read from it.
Experiments:
[1] = target: T1, Pregnane X receptor PXR, NR1I2 (h) (Homo sapiens, UniProt O75469); experiment: IPP PXR coactivator recruitment (antagonist); details: ligand T0901317
T1 sequence (O75469 1-434): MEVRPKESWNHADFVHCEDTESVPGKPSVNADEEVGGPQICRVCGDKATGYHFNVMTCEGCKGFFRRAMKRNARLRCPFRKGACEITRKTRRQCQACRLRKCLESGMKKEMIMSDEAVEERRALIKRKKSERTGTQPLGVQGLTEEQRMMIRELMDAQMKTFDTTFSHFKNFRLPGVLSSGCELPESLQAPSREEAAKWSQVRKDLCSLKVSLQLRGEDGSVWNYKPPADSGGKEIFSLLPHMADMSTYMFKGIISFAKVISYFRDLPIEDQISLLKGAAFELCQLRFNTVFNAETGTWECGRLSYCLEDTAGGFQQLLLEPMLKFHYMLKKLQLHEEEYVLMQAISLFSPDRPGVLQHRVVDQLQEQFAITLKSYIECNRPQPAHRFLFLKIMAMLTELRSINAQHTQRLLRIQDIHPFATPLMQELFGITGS

rat = details: rat, cited from earlier work; for PoD (NOAEL): ref ToxRefDB/Paul-Friedman et al. (2020)/regulatory opinions
[2] = target: T1, Pregnane X receptor PXR, NR1I2 (h); experiment: IPP PXR coactivator recruitment (agonist); details: T0901317 for control
MCF7 cells = experiment: High-throughput transcriptomics (HTTr, TempO-Seq), MCF7, 24 h; assay type: cell-based, human; details: MCF-7; for pod_httr_bifrost PoD: HTTr BIFROST PoD; for podl_path_minbmd PoD: HTTr minimum pathway BMD(L)
Procedure: (§1) HepG2, HepaRG, and MCF7 cells were treated with each compound for 24 h across a dose range of 7 concentrations and lysed using TempO-Seq lysis buffer (BioSpyder Technologies, proprietary kit, see [Middleton et al. 2022] for method details). Sequencing was performed using TempO-Seq (BioClavis) version 2 of the human whole transcriptome panel and analyzed as described previously in Middleton et al.

[3] = test system: Sodium channel protein type 5 subunit alpha (site 2), SCN5A (r); assay type: binding, rat; details: control veratridine
[4] = test system: Potassium Voltage-Gated Channel Kv non-selective, KCNQ1 (r); experiment: IPP KCNQ1 binding (antagonist radioligand); design: species or system rat; details: control α-dendrotoxin
[5] = target: T2, Estrogen receptor, ER1 (h) (Homo sapiens, UniProt P03372); experiment: IPP ER1 coactivator recruitment (antagonist); assay type: biochemical; details: estriol
T2 construct: purchased Eurofins Cerep (SafetyScreen44-based IPP panel)
T2 sequence (P03372 1-595): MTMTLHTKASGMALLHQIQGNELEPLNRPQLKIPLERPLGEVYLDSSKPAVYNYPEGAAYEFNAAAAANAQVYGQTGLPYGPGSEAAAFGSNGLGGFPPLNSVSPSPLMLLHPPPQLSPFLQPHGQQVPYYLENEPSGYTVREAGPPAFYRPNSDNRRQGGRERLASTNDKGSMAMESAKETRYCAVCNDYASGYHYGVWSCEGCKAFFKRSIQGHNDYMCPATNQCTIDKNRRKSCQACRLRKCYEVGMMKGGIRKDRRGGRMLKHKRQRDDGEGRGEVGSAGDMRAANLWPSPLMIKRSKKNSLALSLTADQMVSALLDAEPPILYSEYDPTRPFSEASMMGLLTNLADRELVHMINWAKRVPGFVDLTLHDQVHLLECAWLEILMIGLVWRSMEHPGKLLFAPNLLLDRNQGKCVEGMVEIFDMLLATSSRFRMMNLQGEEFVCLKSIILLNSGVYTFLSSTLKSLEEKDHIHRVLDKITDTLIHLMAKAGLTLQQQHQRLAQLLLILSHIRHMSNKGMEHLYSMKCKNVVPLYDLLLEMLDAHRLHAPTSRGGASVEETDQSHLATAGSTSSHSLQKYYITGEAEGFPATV

[6] = target: Potassium voltage-gated channel subfamily H member 2 hERG, KCNH2 (h) (Homo sapiens, UniProt Q12809); details: [3H] Dofetilide, control Terfenadine
Chain of Potassium voltage-gated channel subfamily H member 2 hERG, KCNH2 (h) (Q12809 whole entry): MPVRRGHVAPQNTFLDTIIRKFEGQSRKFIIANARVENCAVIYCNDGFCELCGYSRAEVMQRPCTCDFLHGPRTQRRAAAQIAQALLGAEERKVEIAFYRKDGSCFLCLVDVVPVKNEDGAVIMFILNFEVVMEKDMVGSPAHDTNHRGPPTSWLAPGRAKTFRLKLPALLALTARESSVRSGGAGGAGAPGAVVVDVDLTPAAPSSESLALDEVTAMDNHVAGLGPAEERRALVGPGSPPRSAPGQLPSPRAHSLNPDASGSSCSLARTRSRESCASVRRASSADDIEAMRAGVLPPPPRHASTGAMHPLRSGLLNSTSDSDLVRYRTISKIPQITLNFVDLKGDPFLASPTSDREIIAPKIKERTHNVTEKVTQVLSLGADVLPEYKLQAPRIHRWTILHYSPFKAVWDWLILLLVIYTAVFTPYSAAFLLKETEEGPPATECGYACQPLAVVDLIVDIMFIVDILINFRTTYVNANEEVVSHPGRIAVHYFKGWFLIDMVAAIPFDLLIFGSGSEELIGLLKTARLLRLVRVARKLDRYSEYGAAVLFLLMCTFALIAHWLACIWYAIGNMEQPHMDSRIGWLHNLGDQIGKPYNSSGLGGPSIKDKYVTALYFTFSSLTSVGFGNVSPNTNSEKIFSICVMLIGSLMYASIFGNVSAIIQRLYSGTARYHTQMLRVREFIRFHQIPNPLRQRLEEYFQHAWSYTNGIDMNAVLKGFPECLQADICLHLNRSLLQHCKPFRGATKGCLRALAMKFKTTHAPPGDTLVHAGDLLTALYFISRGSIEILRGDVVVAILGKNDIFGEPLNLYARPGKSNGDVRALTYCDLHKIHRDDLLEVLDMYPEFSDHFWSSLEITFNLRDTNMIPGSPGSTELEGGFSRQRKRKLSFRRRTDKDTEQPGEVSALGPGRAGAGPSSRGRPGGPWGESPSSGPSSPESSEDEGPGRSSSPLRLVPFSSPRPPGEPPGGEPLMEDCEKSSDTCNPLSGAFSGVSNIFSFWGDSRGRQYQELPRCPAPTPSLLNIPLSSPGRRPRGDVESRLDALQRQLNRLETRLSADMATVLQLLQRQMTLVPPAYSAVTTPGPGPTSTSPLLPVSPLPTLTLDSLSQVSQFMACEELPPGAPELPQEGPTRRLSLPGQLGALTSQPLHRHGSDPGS

[7] = test system: Glutamate receptor ionotropic NMDA 1 non-selective, GRIN1 (r); details: control CGS 19755
[8] = target: T2, Estrogen receptor, ER1 (h); experiment: IPP ER1 coactivator recruitment (agonist); assay type: biochemical; details: estriol
Tubulin (r) = experiment: IPP Tubulin binding; design: species or system rat; details: ligand/control Colchicine
[9] = target: T3, Adenosine receptor A2a, ADORA2A (h) (Homo sapiens, UniProt P29274); experiment: IPP ADORA2A binding (agonist radioligand); details: control NECA
T3 construct: purchased Eurofins Cerep (SafetyScreen44-based IPP panel)
T3 sequence (P29274 whole entry): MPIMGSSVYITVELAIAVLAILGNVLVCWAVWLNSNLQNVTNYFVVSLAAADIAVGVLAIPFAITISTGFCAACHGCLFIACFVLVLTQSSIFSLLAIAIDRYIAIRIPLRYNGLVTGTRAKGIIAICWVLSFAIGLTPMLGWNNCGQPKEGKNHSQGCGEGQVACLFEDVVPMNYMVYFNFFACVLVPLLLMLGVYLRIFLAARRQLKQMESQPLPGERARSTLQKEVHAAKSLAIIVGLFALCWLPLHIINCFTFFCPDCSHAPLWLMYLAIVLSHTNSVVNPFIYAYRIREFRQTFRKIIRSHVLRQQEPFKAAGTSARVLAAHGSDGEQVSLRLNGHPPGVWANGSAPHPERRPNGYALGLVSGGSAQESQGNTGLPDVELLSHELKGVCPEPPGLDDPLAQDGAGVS

[10] = test system: Thyroid hormone receptor alpha, THRA (h); experiment: IPP THRA coactivator recruitment (agonist); assay type: biochemical, human; details: agonist, T3
HepaRG cells = experiment: High-throughput transcriptomics (HTTr, TempO-Seq), HepaRG, 24 h; assay type: cell-based, human; details: HepaRG; for pod_httr_bifrost PoD: HTTr BIFROST PoD; for podl_path_minbmd PoD: HTTr minimum pathway BMD(L)
Procedure: as §1

[11] = test system: Gamma-aminobutyric acid receptor subunit alpha-1 BZD site, GABRA1A (r); assay type: binding, rat; details: control diazepam
HepG2 cells [12] = experiment: Cell stress panel (CSP), 24 h, 8 concentrations, BIFROST global PoD; assay type: cell-based; details: for pod_cell_stress PoD: HepG2, cell stress panel PoD
Procedure: Compounds were tested using the previously developed cell stress panel ([Hatherell et al. 2020]) and the expanded biomarker panel outlined in Middleton et al. HepG2 cells were treated with all compounds for 24 h across 8 concentrations prior to biomarker analysis. The same plate layout and number of replicates (3 biological and 2 technical) were used as previously for each assay within the panel.

[13] = PBK level L2; taken or scaled from references (median where several); ref [6],[7],[10],[19]; cited from earlier work
HepG2 cells [14] = experiment: High-throughput transcriptomics (HTTr, TempO-Seq), HepG2, 24 h; assay type: cell-based, human; details: HepG2; for pod_httr_bifrost PoD: HTTr BIFROST PoD; for podl_path_minbmd PoD: HTTr minimum pathway BMD(L)
Procedure: as §1

[15] = cited from earlier work
[16] = PBK level L2; single value or median; ref [2],[4],[6],[7],[8],[10],[11],[15],[18],[27],[34]; cited from earlier work
[17] = Assignment of risk classifications to benchmark chemical-exposure scenarios; details: for risk: from table S1
[18] = target: Voltage-dependent L-type Ca2+ channel (dihydropyridine site), CACNA1C (r) (Rattus norvegicus, UniProt P22002); assay type: binding; details: IPP screening at 10 uM; control nitrendipine
Chain of Voltage-dependent L-type Ca2+ channel (dihydropyridine site), CACNA1C (r) (P22002 whole entry): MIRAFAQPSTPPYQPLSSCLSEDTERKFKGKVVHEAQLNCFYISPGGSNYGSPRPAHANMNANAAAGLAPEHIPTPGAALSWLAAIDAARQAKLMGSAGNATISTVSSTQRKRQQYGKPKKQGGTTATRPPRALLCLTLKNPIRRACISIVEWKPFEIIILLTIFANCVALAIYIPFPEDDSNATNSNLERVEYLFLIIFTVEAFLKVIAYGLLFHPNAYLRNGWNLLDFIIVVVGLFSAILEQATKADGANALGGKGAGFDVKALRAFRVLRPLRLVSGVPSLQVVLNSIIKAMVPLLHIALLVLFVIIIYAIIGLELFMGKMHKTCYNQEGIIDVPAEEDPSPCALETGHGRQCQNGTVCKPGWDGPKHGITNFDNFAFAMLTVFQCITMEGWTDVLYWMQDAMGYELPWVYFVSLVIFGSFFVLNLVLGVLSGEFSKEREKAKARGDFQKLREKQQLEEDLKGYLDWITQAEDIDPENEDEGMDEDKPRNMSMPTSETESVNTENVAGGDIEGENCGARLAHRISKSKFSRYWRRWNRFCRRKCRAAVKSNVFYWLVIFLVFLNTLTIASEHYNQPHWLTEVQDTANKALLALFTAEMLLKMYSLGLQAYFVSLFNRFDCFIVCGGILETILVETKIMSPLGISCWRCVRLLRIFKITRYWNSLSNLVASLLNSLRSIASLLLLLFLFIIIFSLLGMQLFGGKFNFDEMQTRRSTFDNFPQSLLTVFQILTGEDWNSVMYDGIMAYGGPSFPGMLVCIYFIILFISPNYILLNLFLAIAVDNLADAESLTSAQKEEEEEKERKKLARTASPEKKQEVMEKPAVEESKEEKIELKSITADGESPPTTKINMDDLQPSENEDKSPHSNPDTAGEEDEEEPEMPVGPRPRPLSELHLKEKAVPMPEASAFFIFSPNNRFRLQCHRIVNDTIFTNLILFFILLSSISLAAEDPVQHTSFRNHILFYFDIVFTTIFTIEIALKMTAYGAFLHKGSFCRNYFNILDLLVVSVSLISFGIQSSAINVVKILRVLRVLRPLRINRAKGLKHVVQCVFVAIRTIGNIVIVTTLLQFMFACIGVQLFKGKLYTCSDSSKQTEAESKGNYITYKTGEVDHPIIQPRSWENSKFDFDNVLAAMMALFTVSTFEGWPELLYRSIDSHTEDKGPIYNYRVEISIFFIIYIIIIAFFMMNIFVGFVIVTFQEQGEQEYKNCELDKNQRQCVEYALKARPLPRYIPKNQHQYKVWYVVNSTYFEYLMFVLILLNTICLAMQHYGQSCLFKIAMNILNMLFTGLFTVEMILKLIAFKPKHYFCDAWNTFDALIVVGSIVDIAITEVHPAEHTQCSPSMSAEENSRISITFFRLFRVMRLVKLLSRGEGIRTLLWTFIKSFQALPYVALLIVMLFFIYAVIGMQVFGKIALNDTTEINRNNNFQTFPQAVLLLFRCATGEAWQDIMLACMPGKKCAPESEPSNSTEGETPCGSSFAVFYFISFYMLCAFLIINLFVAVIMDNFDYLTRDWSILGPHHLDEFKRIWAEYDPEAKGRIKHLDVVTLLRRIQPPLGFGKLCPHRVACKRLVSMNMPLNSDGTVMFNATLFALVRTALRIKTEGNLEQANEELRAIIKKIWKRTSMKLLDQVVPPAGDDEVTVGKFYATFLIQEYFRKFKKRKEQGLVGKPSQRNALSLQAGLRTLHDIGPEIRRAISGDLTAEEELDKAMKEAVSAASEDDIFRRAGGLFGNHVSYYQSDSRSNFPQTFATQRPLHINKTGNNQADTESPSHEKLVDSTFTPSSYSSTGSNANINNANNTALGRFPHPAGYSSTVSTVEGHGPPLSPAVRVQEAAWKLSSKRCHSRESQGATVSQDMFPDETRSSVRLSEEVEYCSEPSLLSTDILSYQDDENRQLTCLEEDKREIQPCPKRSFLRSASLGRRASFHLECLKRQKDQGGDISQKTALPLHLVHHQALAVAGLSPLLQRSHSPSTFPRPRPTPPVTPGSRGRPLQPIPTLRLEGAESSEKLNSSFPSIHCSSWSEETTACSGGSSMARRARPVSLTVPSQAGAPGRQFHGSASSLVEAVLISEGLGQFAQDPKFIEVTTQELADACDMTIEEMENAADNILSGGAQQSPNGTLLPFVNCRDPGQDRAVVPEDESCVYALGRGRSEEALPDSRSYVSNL

[19] = test system: 63 targets with known safety liabilities; experiment: In vitro pharmacological profiling (IPP) panel, screening at 10 or 100 µM and dose response, minimum IC50/AC50; assay type: biochemical; details: lowest AC50 across IPP panel (systemic targets); cell_type -; read-out: ipp_lowest_ac50_systemic PoD
[20] = PBK level L2; at the given pH; single value or median; ref [1],[4],[5],[10],[11],[17],[26]; cited from earlier work
[21] = 100 uM, * denotes assay interference (2-Amino-6-chloro-4-nitrophenol, HC Red 3)

Structure (SMILES) | pod_httr_bifrost PoD (MCF7 cells) [µM] | podl_path_minbmd PoD (MCF7 cells) [µM] | pod_httr_bifrost PoD (HepaRG cells) [µM] | podl_path_minbmd PoD (HepaRG cells) [µM] | Bioactivity Observations: cell stress panel (HepG2 cells [12]) | pod_cell_stress PoD (HepG2 cells [12]) [µM] | Intrinsic Liver Clearance [13] [L/h] | pod_httr_bifrost PoD (HepG2 cells [14]) [µM] | podl_path_minbmd PoD (HepG2 cells [14]) [µM] | IPP screening %, Coactivator recruitment ([1]; 10 uM) [%] | IPP screening %, Coactivator recruitment ([2]; 10 uM) [%] | Specific binding ([3]; IPP screening at 10 uM) [%] | Specific binding ([4]; IPP screening at 10 uM) [%] | IPP screening %, Specific binding ([6]; 10 uM) [%] | Specific binding ([7]; IPP screening at 10 uM) [%] | IPP screening %, Specific binding (Tubulin (r); 10 uM) [%] | Specific binding ([9]; IPP screening at 10 uM) [%] | IPP screening %, Coactivator recruitment ([10]; 10 uM) [%] | Specific binding ([11]; IPP screening at 10 uM) [%] | other results
COC(=O)[C@H](Cc1ccccc1)NC(=O)[C@@H](N)CC(=O)O [Aspartame, Methyl L-alpha-aspartyl-L-phenylalaninate] (H-Asp-Phe-OMe) | 423.587 | 2500 | 853.753 | 2500 | the CSP shows some small effects on PGC1alpha/Nrf2 and the ECAR (seahorse) | 536.875 | 400.2 | 1509.3 | 2500 | – | – | – | – | – | – | – | – | – | – | IPP screening %, Coactivator recruitment ([1]; 100 uM): -11.9%; PoD (NOAEL) (rat; 38 days, developmental neurotoxicity study): 1614 mg/kg bw/day; IPP screening %, Coactivator recruitment ([2]; 100 uM): 15.7%; Specific binding ([3]; IPP screening at 100 uM): 3.9%; Specific binding ([4]; IPP screening at 100 uM): 2.5%; IPP screening %, Coactivator recruitment [5, 21]: -1.0%; IPP screening %, Specific binding ([6]; 100 uM): 1.5%; Specific binding ([7]; IPP screening at 100 uM): 24.0%; IPP screening %, Coactivator recruitment [8, 21]: 0.0%; IPP screening %, Specific binding (Tubulin (r); 100 uM): -13.0%; Specific binding ([9]; IPP screening at 100 uM): 0.3%; IPP screening %, Coactivator recruitment [10, 21]: 2.0%; Specific binding ([11]; IPP screening at 100 uM): 7.4%
CCCCOC(=O)c1ccc(O)cc1 [Butylparaben, Butyl 4-hydroxybenzoate] | – | – | – | – | – | 4.378 | 799.2 | – | – | 6.9 | 3.1 | 23.9 | 1.5 | -13.5 | -5.2 | 8.0 | 5.4 | 2.0 | 12.4 | PoD (LOAEL) (rat; subchronic - 8 weeks, ref Oishi): 10 mg/kg bw/day; BMDL5 ([15]; ref SCCS): 24 mg/kg/day; Real NOAEL ([15]; ref not given): 1000 mg/kg/day; alternative lowest PoD ([15]; studies stated to be flawed, ref Oishi): 14.4 mg/kg/day; Fup [16]: 5.64%; Risk Classification ([17]; Dermal […] in Body Lotion): Low risk; risk ([17]; Dermal, […] (regulation says limit is […] as acid), Body lotion, Exp1): 0
O=[N+]([O-])c1cc(C(F)(F)F)c(Cl)c([N+](=O)[O-])c1Nc1ncc(C(F)(F)F)cc1Cl [Fluazinam, 3-Chloro-N-[3-chloro-2,6-dinitro-4-(trifluoromethyl)phenyl]-5-(trifluoromethyl)pyridin-2-amine] | 0.1303 | 0.4999 | 0.0222 | 0.4338 | The seahorse assays within the cell stress panel do report activity and with a very large magnitude of change in the OCR biomarker | 0.6023 | – | 0.03634 | 0.699 | 111.2 | -8.8 | 19.6 | -3.7 | 16.2 | 1.2 | 9.0 | 14.9 | 2.0 | -31.4 | PoD (NOAEL) (rat; 104 weeks): 0.38 mg/kg bw/day; IPP screening %, Coactivator recruitment ([5]; 10 uM): 46.0%; IPP screening %, Coactivator recruitment ([8]; 10 uM): -4.0%; Specific binding [18]: 99.9%; AC50 [19]: 430 nM; Aqueous Solubility [20]: 0.95 µg/mL; Risk Classification ([17]; Oral 0.01 mg/kg bw/day): Low risk; Risk Classification ([17]; Oral 32% of 0.01 mg/kg bw/day): Low risk; risk ([17]; Oral, 32% ADI 0.01 mg/kg bw/day, Food residue, Exp1): 0; risk ([17]; Oral, ADI 0.01 mg/kg bw/day, Food residue, Exp2): 0
